Experiments:
[1] = system: wild-type EGFR overexpressing Ba/F3 cells; test: Growth inhibition of Ba/F3 cells engineered to overexpress wild-type EGFR (CellTiter-Glo luminescence); assay type: cell-based; details: Mus musculus, BaF3, 72 hours, concentrations 10000 to 8 nM, read-out: Ba/F3 EGFR^WT GI50 class
Protocol: (§1) Experimental Example: Growth inhibition of Ba/F3 HER2 A775insYVMA and wild-type Ba/F3 cells
(§2) In this Experimental Example, the compounds obtained in Examples 1 to 92 were evaluated for their ability to inhibit growth of cells harboring either the HER2 A775insYVMA mutation or wild-type EGFR. For this purpose, Ba/F3 cells (ATCC, USA) were genetically engineered to overexpress either HER2 A775_G776insYVMA or wild-type EGFR, and the growth of these engineered Ba/F3 cells were monitored in the presence of the compounds described in the Examples to evaluate their effects on growth inhibition.
(§3) Specifically, culture flasks of the engineered Ba/F3 cells suspended in RPMI 1640 medium supplemented with 10% fetal bovine serum (FBS) and 1% penicillin/streptomycin (Gibco BRL, USA) were placed in a cell incubator and incubated at 37°C and 5% CO2 level to allow them to reach a stable logarithmic growth phase. The cells were then harvested by centrifugation to remove the old media and placed into a 96-well plate by dividing them into 100 µL aliquots per well at a dilution of 1×10^5 cells/mL in fresh media. Each of the compounds prepared in the preceding Examples were dissolved in 99.5% (cell culture grade) dimethylsulfoxide (DMSO) to prepare a stock solution of 10 mM concentration, which were serially diluted in the culture medium to final concentrations of 1000, 200, 40, 8, 1.6 and 0.32 nM for HER2 A775insYVMA Ba/F3 cells and concentrations of 10000, 5000, 1000, 200, 40 and 8 nM for wild-type EGFR overexpressing Ba/F3 cells.
(§4) To each aliquot of cells in the 96-well plate, a 50 µL test solution comprising one of the compounds was added to result in each well a 150 µL volume of cells with a compound in a final concentration ranging from 10 µM to 0.32 nM. The Ba/F3 cells treated with the test solution were incubated for 72 hours at 37°C and 5% CO2 level and underwent a 30-minute acclimation by placing the 96-well plate carrying the cells in ambient temperature. Thereafter, to each well was added 50 µL CellTiter-Glo® Luminescent Cell Assay Reagent (CTG, Promega, USA). After allowing 10 minutes to stabilize the signal, luminescence intensity was measured using a microplate reader. The half-maximal growth inhibition concentration (GI50) was calculated from the luminescence readout of the test compounds with the difference between the initial and final cell densities for the well untreated with a compound set at 100% growth. Nonlinear regression analysis based on log[inhibitor] vs. normalized response mode of the Graph Prism software was used for calculating GI50 for each compound, which are summarized in Table 6. The calculated GI50 values are classified in Table 6 into four categories: A for GI50 values less than 100 nM, B for GI50 values more than 100 nM but less than 1,000 nM, C for GI50 values more than 1,000 nM but less than 5,000 nM, and D for GI50 values of more than 5,000 nM.

[2] = system: Ba/F3 HER2 A775insYVMA; test: Growth inhibition of Ba/F3 cells engineered to overexpress HER2 A775_G776insYVMA (CellTiter-Glo luminescence); assay type: cell-based; details: Mus musculus, BaF3, 72 hours, concentrations 1000 to 0.32 nM, read-out: Ba/F3 HER2^YVMA GI50 class
Protocol: as §1, §2, §3, §4

GI50 [1] [nM]	GI50 [2] [nM]	Compound
100 to 1000	< 100	C=CC(=O)N(C)CCOc1ccc2ncnc(Nc3ccc(Oc4ccn5ncnc5c4)c(C)c3)c2c1 [Example 1, N-(2-((4-((4-([1,2,4]triazolo[1,5-a]pyridin-7-yloxy)-3-methylphenyl)amino)quinazolin-6-yl)oxy)ethyl)-N-methylacrylamide]
100 to 1000	< 100	C=CC(=O)N(C)CCOc1cc2c(Nc3ccc(Oc4ccn5ncnc5c4)c(C)c3)ncnc2cc1OC [Example 2, N-(2-((4-((4-([1,2,4]triazolo[1,5-a]pyridin-7-yloxy)-3-methylphenyl)amino)-7-methoxyquinazolin-6-yl)oxy)ethyl)-N-methylacrylamide]
100 to 1000	< 100	C=CC(=O)N(C)CCOc1ccc2ncnc(Nc3ccc(Oc4ccn5ncnc5c4)c(C)c3)c2n1 [Example 3, N-(2-((4-((4-([1,2,4]triazolo[1,5-a]pyridin-7-yloxy)-3-methylphenyl)amino)pyrido[3,2-d]pyrimidin-6-yl)oxy)ethyl)-N-methylacrylamide]
> 5000	< 100	C=CC(=O)N(C)CCOc1ccc2ncnc(Nc3ccc(Oc4ccc5c(c4)ncn5C)c(C)c3)c2c1 [Example 5, N-methyl-N-(2-((4-((3-methyl-4-((1-methyl-1H-benzo[d]imidazol-5-yl)oxy)phenyl)amino)quinazolin-6-yl)oxy)ethyl)acrylamide]
> 5000	< 100	C=CC(=O)N(C)CCOc1ccc2ncnc(Nc3ccc(Oc4ccc5c(c4)ncn5C)c(C)c3)c2n1 [Example 6, N-methyl-N-(2-((4-((3-methyl-4-((1-methyl-1H-benzo[d]imidazol-5-yl)oxy)phenyl)amino)pyrido[3,2-d]pyrimidin-6-yl)oxy)ethyl)acrylamide]
> 5000	100 to 1000	C=CC(=O)NCCOc1ccc2ncnc(Nc3ccc(Oc4ccc5c(c4)ncn5C)c(C)c3)c2n1 [Example 7, N-(2-((4-((3-methyl-4-((1-methyl-1H-benzo[d]imidazol-5-yl)oxy)phenyl)amino)pyrido[3,2-d]pyrimidin-6-yl)oxy)ethyl)acrylamide]
1000 to 5000	100 to 1000	C=CC(=O)N(C)CCOc1ncc2ncnc(Nc3ccc(Oc4ccc5c(c4)ncn5C)c(C)c3)c2n1 [Example 8, N-methyl-N-(2-((8-((3-methyl-4-((1-methyl-1H-benzo[d]imidazol-5-yl)oxy)phenyl)amino)pyrimido[5,4-d]pyrimidin-2-yl)oxy)ethyl)acrylamide]
> 5000	100 to 1000	C=CC(=O)N(C)CCCOc1ccc2ncnc(Nc3ccc(Oc4ccc5c(c4)ncn5C)c(C)c3)c2n1 [Example 9, N-methyl-N-(3-((4-((3-methyl-4-((1-methyl-1H-benzo[d]imidazol-5-yl)oxy)phenyl)amino)pyrido[3,2-d]pyrimidin-6-yl)oxy)propyl)acrylamide]
1000 to 5000	< 100	C=CC(=O)NCCOc1ccc2ncnc(Nc3ccc(Oc4ccc5c(c4)ncn5C)c(C)c3)c2c1 [Example 10, N-(2-((4-((3-methyl-4-((1-methyl-1H-benzo[d]imidazol-5-yl)oxy)phenyl)amino)quinazolin-6-yl)oxy)ethyl)acrylamide]
1000 to 5000	1000 to 5000	C=CC(=O)N(C)CCNc1ncc2ncnc(Nc3ccc(Oc4ccn5ncnc5c4)c(C)c3)c2n1 [Example 12, N-(2-((8-((4-([1,2,4]triazolo[1,5-a]pyridin-7-yloxy)-3-methylphenyl)amino)pyrimido[5,4-d]pyrimidin-2-yl)amino)ethyl)-N-methylacrylamide]
1000 to 5000	100 to 1000	C=CC(=O)N(C)CCN(C)c1ccc2ncnc(Nc3ccc(Oc4ccn5ncnc5c4)c(C)c3)c2n1 [Example 13, N-(2-((4-((4-([1,2,4]triazolo[1,5-a]pyridin-7-yloxy)-3-methylphenyl)amino)pyrido[3,2-d]pyrimidin-6-yl)(methyl)amino)ethyl)-N-methylacrylamide]
1000 to 5000	1000 to 5000	C=CC(=O)N(C)CCN(C)c1ncc2ncnc(Nc3ccc(Oc4ccn5ncnc5c4)c(C)c3)c2n1 [Example 14, N-(2-((8-((4-([1,2,4]triazolo[1,5-a]pyridin-7-yloxy)-3-methylphenyl)amino)pyrimido[5,4-d]pyrimidin-2-yl)(methyl)amino)ethyl)-N-methylacrylamide]
1000 to 5000	< 100	C=CC(=O)N(C)CCNc1ccc2ncnc(Nc3ccc(Oc4ccc5c(c4)ncn5C)c(C)c3)c2n1 [Example 15, N-methyl-N-(2-((4-((3-methyl-4-((1-methyl-1H-benzo[d]imidazol-5-yl)oxy)phenyl)amino)pyrido[3,2-d]pyrimidin-6-yl)amino)ethyl)acrylamide]
> 5000	< 100	C=CC(=O)N(C)CCCNc1ccc2ncnc(Nc3ccc(Oc4ccc5c(c4)ncn5C)c(C)c3)c2n1 [Example 17, N-methyl-N-(3-((4-((3-methyl-4-((1-methyl-1H-benzo[d]imidazol-5-yl)oxy)phenyl)amino)pyrido[3,2-d]pyrimidin-6-yl)amino)propyl)acrylamide]
> 5000	100 to 1000	C=CC(=O)N(C)CCN(C)c1ccc2ncnc(Nc3ccc(Oc4ccc5c(c4)ncn5C)c(C)c3)c2n1 [Example 18, N-methyl-N-(2-(methyl(4-((3-methyl-4-((1-methyl-1H-benzo[d]imidazol-5-yl)oxy)phenyl)amino)pyrido[3,2-d]pyrimidin-6-yl)amino)ethyl)acrylamide]
> 5000	100 to 1000	C=CC(=O)N(C)CCN(C)c1ncc2ncnc(Nc3ccc(Oc4ccc5c(c4)ncn5C)c(C)c3)c2n1 [Example 19, N-methyl-N-(2-(methyl(8-((3-methyl-4-((1-methyl-1H-benzo[d]imidazol-5-yl)oxy)phenyl)amino)pyrimido[5,4-d]pyrimidin-2-yl)amino)ethyl)acrylamide]
> 5000	100 to 1000	C=CC(=O)N(C)CCCN(C)c1ccc2ncnc(Nc3ccc(Oc4ccc5c(c4)ncn5C)c(C)c3)c2n1 [Example 20, N-methyl-N-(3-(methyl(4-((3-methyl-4-((1-methyl-1H-benzo[d]imidazol-5-yl)oxy)phenyl)amino)pyrido[3,2-d]pyrimidin-6-yl)amino)propyl)acrylamide]
1000 to 5000	100 to 1000	C=CC(=O)N(C)CC(=O)Nc1ccc2ncnc(Nc3ccc(Oc4ccc5c(c4)ncn5C)c(C)c3)c2n1 [Example 21, N-methyl-N-(2-((4-((3-methyl-4-((1-methyl-1H-benzo[d]imidazol-5-yl)oxy)phenyl)amino)pyrido[3,2-d]pyrimidin-6-yl)amino)-2-oxoethyl)acrylamide]
1000 to 5000	< 100	C=CC(=O)N(C)C/C=C/c1ccc2ncnc(Nc3ccc(Oc4ccc5c(c4)ncn5C)c(C)c3)c2c1 [Example 22]
> 5000	< 100	C=CC(=O)N(C)C/C=C/c1ccc2ncnc(Nc3ccc(Oc4ccc5c(c4)ncn5C)c(C)c3)c2n1 [Example 23, (E)-N-methyl-N-(3-(4-((3-methyl-4-((1-methyl-1H-benzo[d]imidazol-5-yl)oxy)phenyl)amino)pyrido[3,2-d]pyrimidin-6-yl)aryl)acrylamide]
1000 to 5000	< 100	C=CC(=O)N(C)C/C=C/c1ncc2ncnc(Nc3ccc(Oc4ccc5c(c4)ncn5C)c(C)c3)c2n1 [Example 24, (E)-N-methyl-N-(3-(8-((3-methyl-4-((1-methyl-1H-benzo[d]imidazol-5-yl)oxy)phenyl)amino)pyrimido[5,4-d]pyrimidin-2-yl)allyl)acrylamide]
1000 to 5000	< 100	C=CC(=O)N(C)C/C=C/c1ccc2ncnc(Nc3ccc(Oc4ccc5c(c4)ncn5C)c(Cl)c3)c2n1 [Example 25, (E)-N-(3-(4-((3-chloro-4-((1-methyl-1H-benzo[d]imidazol-5-yl)oxy)phenyl)amino)pyrido[3,2-d]pyrimidin-6-yl)allyl)-N-methylacrylamide]

— patent publication EP4782450A1, “NOVEL SKELETAL DERIVATIVE EFFECTIVE FOR HER2 MUTATION, AND PHARMACEUTICAL COMPOSITION COMPRISING SAME” (Hanmi Pharm. Co., Ltd., priority 2023, dated 2025)
